Test results: PMC12591163, “Controllable Generation of Pathogen‐Specific Antimicrobial Peptides Through Knowledge‐Aware Prompt Diffusion Model” (Advanced Science, 2025)
Ends that are not written are not given here. Peptide text beside a SMILES is read from it.

How the values were obtained:
Format in all cases: cell-based
[1] = test system: E. coli ATCC 25922; settings: for antimicrobial activity against E. coli (in words): activity threshold defined as MIC ⩽ 128 µg mL^−1; for MIC against E. coli: ATCC 25922
Description: (§1) 2.3Details of the wet-lab evaluation […]
(§2) Pathogens used for minimum inhibitory concentration (MIC) measurements included E. coli ATCC 25922 and S. aureus
(§3) ATCC 25923. Both pathogens were streaked on Luria–Bertani (LB) agar and incubated at 37°C overnight. Individual colonies
(§4) were then selected from the agar plates and transferred to Mueller–Hinton broth (MHB) (Hopebio, China) for further cultivation.
(§5) The cultures were shaken at 160 rpm at 37°C overnight. Once the turbidity of the bacterial suspensions reached between 0.4
(§6) and 0.6 McFarland (MCF), the suspensions were diluted 20-fold with MHB. For the preparation of antimicrobial peptide
(§7) solutions, chemically synthesized peptides were dissolved in either ultrapure water (Biosharp, China) or dimethyl sulfoxide
(§8) (DMSO) (Biosharp, China) to achieve a stock concentration of […]. This stock solution was then further diluted with
(§9) MHB to obtain the concentration gradient of 2 to 512 µg/mL for testing. Subsequently, 200 µL of each peptide dilution was
(§10) pipetted into 96-well plates, followed by the addition of 10 µL of the diluted bacterial suspension to each well. The plates were
(§11) incubated at 37°C for 14-20 hours, and MIC values were determined as the lowest peptide concentration at which no bacterial
(§12) growth was observed. Antimicrobial activity assays were conducted in 96-well plates with […] experimental groups as follows:
(§13) 1) blank control group, containing 200 µL of MHB without bacterial suspension; 2) bacterial control group, with 200 µL of
(§14) MHB and 10 µL of bacterial suspension without peptide; 3) peptide treatment groups, consisting of 200 µL of MHB containing
(§15) varying peptide concentration gradient of 2 to 512 µg/mL along with 10 µL of bacterial suspension. All experiments were
(§16) conducted in triplicate. The positive (proper growth of bacteria) and negative (sterility) controls were included.
(§17) The Cell Counting Kit-8 (CCK-8) assay was employed to evaluate the cytotoxicity of peptides against human lung epithelial
(§18) Beas-2B cells. The cells were seeded at a density of 5× 10^3 cells per 100 µL in 96-well plates and cultured overnight at 37°C
(§19) with 5% CO2. Subsequently, the cells were treated with 100 µL of F-12K medium (Procell, China) containing the peptide
(§20) concentration gradient of 4 to 512 µg/mL and incubated for 24 hours. After incubation, 10 µL of CCK-8 solution (Abbkine,
(§21) China) was added to each well, and the cells were incubated for an additional 4 hours at 37°C. Optical density (OD) at 450 nm
(§22) was measured using an automated microplate reader (BioTek, USA). Each treatment was performed in six duplicate wells.
(§23) Cell viability was calculated as the percentage relative to the control, using the formula: Cell viability (%) = [(OD[peptide] -
(§24) OD[blank]) / (OD[control] - OD[blank])] × 100%.
(§25) 3.1More landscape for peptide datasets
(§26) For the diversity of GO terms, the biological process category encompasses 3,430 terms (accounting for 47% of the total terms)
(§27) and 245,683 peptides (representing 22% of the total peptides); the cellular component category includes 819 terms (11%) and
(§28) 469,675 peptides (43%); the molecular function category covers 3,017 terms (42%) and 389,436 peptides (35%). In the context
(§29) of pathogen diversity (Table 1), the Gram-positive group comprises 24 distinct pathogens (accounting for 43% of the total
(§30) pathogen numbers), and 31,726 peptide terms (representing 49% of the total peptide numbers). The Gram-negative group is
(§31) characterized by 17 pathogens (constituting 30% of the pathogen diversity), and 28,206 peptide terms (making up 44% of the […]

[2] = test system: S. aureus ATCC 25923
Description: as §1, §2, §3, §4, §5, §6, §7, §8, §9, §10, §11, §12, §13, §14, §15, §16, §17, §18, §19, §20, §21, §22, §23, §24, §25, §26, §27, §28, §29, §30, §31

[3] = test system: human lung epithelial Beas-2B cells; settings: 24 h

Row | Molecule | antimicrobial activity against E. coli (in words) [1] | MIC against S. aureus ([2]; ATCC 25923) | antimicrobial activity against S. aureus (in words) ([2]; activity threshold defined as MIC ⩽ 128 µg mL^−1) | peptide concentration causing 50% cytotoxicity (CC50) [3] | MIC against E. coli [1]
1 | CC(C)C[C@H](NC(=O)[C@H](Cc1ccc(O)cc1)NC(=O)CNC(=O)[C@H](CO)NC(=O)[C@H](CC(C)C)NC(=O)[C@H](CCCNC(=N)N)NC(=O)[C@H](CCCNC(=N)N)NC(=O)[C@@H](NC(=O)[C@H](Cc1ccccc1)NC(=O)[C@H](CC(C)C)NC(=O)[C@@H](N)Cc1ccccc1)C(C)C)C(=O)N[C@@H](CC(N)=O)C(=O)N[C@@H](Cc1ccc(O)cc1)C(=O)N[C@H](C(=O)N[C@H](C(=O)N[C@@H](CCCNC(=N)N)C(=O)N[C@@H](CS)C(=O)N[C@@H](CCCNC(=N)N)C(=O)N[C@@H](CCCNC(=N)N)C(=O)N[C@@H](Cc1ccccc1)C(=O)N[C@@H](CCCCN)C(=O)N[C@@H](Cc1ccccc1)C(=O)N[C@@H](CS)C(=O)N[C@@H](C)C(=O)O)C(C)C)[C@@H](C)O [Pep6] (H-FLFVRRLSGYLNYTVRCRRFKFCA-OH; N-terminus and C-terminus assumed) | demonstrated the activity | – | – | – | –
2 | AKRYYWRWFKHWYRFAHG [Pep10] | exhibit antimicrobial activity | 16 µg/mL | exhibit antimicrobial activity | ≥ 256 µg/mL | –
3 | KRTSQQRLQRLITVGRFRLW [Pep7] | – | – | – | – | ≥ 512 µg/mL
4 | MARRKPLGKKLRLRAAFK [Pep8] | – | – | – | – | ≥ 512 µg/mL
